Assay results as given in the NIST ThermoML archive (doi:10.1021/je049626l).
Values joined by “and” are separate entries in the source; they are usually repeats but may differ in a detail not shown here. Equal values may be shown once. ± gives the expanded uncertainty stated by the source.

What was measured:
[1] = Crystal; for Normal melting temperature: DTA
[2] = molar enthalpy of vaporization or sublimation; conditions: Liquid, DSC

COC(=O)COc1ccc(Cl)cc1Cl [methyl 2,4-dichlorophenoxyethanoate]
Conditions | Normal melting temperature [°C]
[1] | 37.6 ± 0.5

[2]
Conditions | molar enthalpy [kcal/mol]
415.2 K | 14.1 ± 0.717
424.4 K | 14.3 ± 0.717
430.4 K | 14.3 ± 0.717

O=C(O)COc1ccc(Cl)cc1Cl [2,4-dichlorophenoxyethanoic acid]
Conditions | molar enthalpy [kcal/mol] | vapor or sublimation pressure
[1], 346 K | – | 8.48e-05 ± 2e-05 kPa
[1], 348 K | – | 0.000157 ± 1.9e-05 kPa
[1], 348.5 K | – | 0.000127 ± 3.3e-05 kPa
[1], 351 K | – | 0.00017 ± 4.6e-05 kPa
[1], 351.5 K | – | 0.000127 ± 2.5e-05 kPa
[1], 352 K | – | 0.000212 ± 4.5e-05 kPa
[1], 353 K | – | 0.000255 ± 2.8e-05 kPa and 0.000314 ± 3.3e-05 kPa
[1], 354.5 K | – | 0.000276 ± 4e-05 kPa and 0.000212 ± 3.6e-05 kPa
[1], 357 K | – | 0.000472 ± 0.0001 kPa
[1], 357.5 K | – | 0.000382 ± 8.6e-05 kPa
[1], 358 K | – | 0.000318 ± 3.3e-05 kPa
[1], 358.5 K | – | 0.000382 ± 4.8e-05 kPa
[1], 360 K | – | 0.000445 ± 5.1e-05 kPa and 0.000629 ± 7.4e-05 kPa
[1], 360.5 K | – | 0.000488 ± 7.2e-05 kPa
[1], 361 K | – | 0.000551 ± 7e-05 kPa
[1], 361.5 K | – | 0.000573 ± 5.8e-05 kPa
[1], 362.5 K | – | 0.000573 ± 7.1e-05 kPa
[1], 363 K | – | 0.000721 ± 8.9e-05 kPa and 0.000679 ± 8.7e-05 kPa
[1], 364.5 K | – | 0.000806 ± 9.1e-05 kPa
[1], 365.5 K | – | 0.000933 ± 0.00011 kPa and 0.00126 ± 0.00028 kPa
[1], 366 K | – | 0.000976 ± 0.00011 kPa and 0.000848 ± 0.00012 kPa
[1], 369 K | – | 0.00132 ± 0.00028 kPa and 0.0014 ± 0.00031 kPa and 0.0011 ± 0.00023 kPa
[1], 370 K | – | 0.00136 ± 0.0003 kPa and 0.00204 ± 0.00048 kPa
[1], 370.5 K | – | 0.00153 ± 0.00038 kPa
[1], 371 K | – | 0.0017 ± 0.00038 kPa
[1], 373 K | – | 0.00174 ± 0.00041 kPa
[1], 374 K | – | 0.00255 ± 0.00065 kPa
[1], 375 K | – | 0.00255 ± 0.00062 kPa and 0.00212 ± 0.0005 kPa
[1], 375.5 K | – | 0.00229 ± 0.00056 kPa
[1], 377 K | – | 0.00297 ± 0.00075 kPa
[1], 378 K | – | 0.00293 ± 0.00074 kPa and 0.00481 ± 0.0013 kPa
[1], 379 K | – | 0.00361 ± 0.00094 kPa
[1], 379.5 K | – | 0.00344 ± 0.00088 kPa
[1], 380.5 K | – | 0.00386 ± 0.001 kPa
[1], 383.5 K | – | 0.00509 ± 0.0015 kPa
[1], 385 K | – | 0.00594 ± 0.0018 kPa
[1], 386 K | – | 0.00628 ± 0.0018 kPa
[1], 387 K | – | 0.0067 ± 0.0019 kPa
[2], 479.1 K | 18.2 ± 0.956 | –
[2], 489.5 K | 18.2 ± 1.43 | –
[2], 503.3 K | 18.4 ± 1.2 | –

Conditions | Normal melting temperature [°C]
[1] | 141.4 ± 0.5

COC(=O)CCCOc1ccc(Cl)cc1Cl [butanoic acid, 4-(2,4-dichlorophenoxy)-, methyl ester]
Conditions | Normal melting temperature [°C]
[1] | 35.0 ± 0.5

[2]
Conditions | molar enthalpy [kcal/mol]
456 K | 15.8 ± 1.43
463.4 K | 16.3 ± 1.67
469.8 K | 16.3 ± 1.43

O=C(O)CCCOc1ccc(Cl)cc1Cl [4-(2,4-dichlorophenoxy)butanoic acid]
Conditions | molar enthalpy [kcal/mol] | vapor or sublimation pressure
[1], 356.5 K | – | 8.48e-05 ± 1.1e-05 kPa
[1], 358 K | – | 0.000106 ± 1.3e-05 kPa
[1], 359.5 K | – | 0.000127 ± 1.6e-05 kPa
[1], 360 K | – | 0.000148 ± 1.6e-05 kPa and 0.000157 ± 1.7e-05 kPa
[1], 361 K | – | 0.000148 ± 1.6e-05 kPa
[1], 361.5 K | – | 0.00017 ± 2.2e-05 kPa
[1], 362.5 K | – | 0.000191 ± 2.3e-05 kPa
[1], 363 K | – | 0.000212 ± 2.4e-05 kPa and 0.000252 ± 2.7e-05 kPa
[1], 363.5 K | – | 0.000212 ± 2.3e-05 kPa and 0.000233 ± 2.5e-05 kPa
[1], 365.5 K | – | 0.000255 ± 2.9e-05 kPa
[1], 366.5 K | – | 0.000297 ± 4e-05 kPa
[1], 367 K | – | 0.000339 ± 5.2e-05 kPa
[1], 367.5 K | – | 0.000377 ± 4.3e-05 kPa
[1], 368 K | – | 0.000382 ± 5e-05 kPa
[1], 369 K | – | 0.000467 ± 5.3e-05 kPa
[1], 369.5 K | – | 0.000445 ± 4.6e-05 kPa
[1], 370 K | – | 0.000488 ± 7.4e-05 kPa and 0.000467 ± 7.4e-05 kPa
[1], 372 K | – | 0.000721 ± 8.4e-05 kPa
[1], 372.5 K | – | 0.000679 ± 7.1e-05 kPa and 0.000636 ± 6.7e-05 kPa
[1], 373 K | – | 0.000764 ± 8.6e-05 kPa and 0.000786 ± 8.7e-05 kPa
[1], 374 K | – | 0.000806 ± 9.1e-05 kPa
[1], 375 K | – | 0.000933 ± 0.0001 kPa and 0.00106 ± 0.00022 kPa
[1], 377 K | – | 0.00106 ± 0.00022 kPa and 0.00123 ± 0.00026 kPa
[1], 377.5 K | – | 0.00123 ± 0.0003 kPa
[1], 378 K | – | 0.00138 ± 0.0003 kPa and 0.0017 ± 0.00038 kPa
[1], 380 K | – | 0.00161 ± 0.00038 kPa
[1], 381 K | – | 0.00229 ± 0.00056 kPa
[1], 382 K | – | 0.00221 ± 0.00055 kPa
[1], 383 K | – | 0.00297 ± 0.00076 kPa and 0.00283 ± 0.00072 kPa
[1], 384 K | – | 0.00297 ± 0.00075 kPa
[1], 386 K | – | 0.00369 ± 0.00096 kPa and 0.0044 ± 0.0012 kPa
[1], 386.5 K | – | 0.00365 ± 0.001 kPa
[1], 387 K | – | 0.00458 ± 0.0013 kPa
[1], 389 K | – | 0.00539 ± 0.0015 kPa
[1], 389.5 K | – | 0.00526 ± 0.0015 kPa
[1], 391 K | – | 0.0067 ± 0.0019 kPa and 0.00666 ± 0.0019 kPa
[2], 485.7 K | 19.4 ± 2.15 | –
[2], 495 K | 19.4 ± 2.39 | –
[2], 501.1 K | 19.4 ± 2.15 | –

Conditions | Normal melting temperature [°C]
[1] | 120.1 ± 0.5

CC(Oc1ccc(Cl)cc1Cl)C(=O)O (configuration not stated) [2-(2,4-dichlorophenoxy)propanoic acid]
Conditions | molar enthalpy [kcal/mol] | vapor or sublimation pressure
[1], 343 K | – | 0.000157 ± 2.1e-05 kPa
[1], 347 K | – | 0.000267 ± 3.5e-05 kPa and 0.000297 ± 3.7e-05 kPa
[1], 352 K | – | 0.000551 ± 6e-05 kPa
[1], 353 K | – | 0.000503 ± 5.9e-05 kPa
[1], 356 K | – | 0.000764 ± 8.4e-05 kPa and 0.000708 ± 7.9e-05 kPa
[1], 358 K | – | 0.000849 ± 8.8e-05 kPa
[1], 359 K | – | 0.000912 ± 0.00014 kPa
[1], 360 K | – | 0.00126 ± 0.00028 kPa
[1], 361 K | – | 0.00126 ± 0.0003 kPa and 0.00153 ± 0.00036 kPa
[1], 364 K | – | 0.00223 ± 0.00054 kPa
[1], 365 K | – | 0.00208 ± 0.00049 kPa
[1], 366 K | – | 0.00252 ± 0.00066 kPa and 0.00339 ± 0.00089 kPa
[1], 368 K | – | 0.00361 ± 0.00095 kPa
[1], 370 K | – | 0.00445 ± 0.0012 kPa
[1], 371 K | – | 0.00481 ± 0.0013 kPa
[1], 372 K | – | 0.00472 ± 0.0013 kPa
[1], 374 K | – | 0.00721 ± 0.0021 kPa
[1], 375 K | – | 0.00692 ± 0.002 kPa
[2], 466.7 K | 18.2 ± 1.43 | –
[2], 474 K | 18.2 ± 1.43 | –
[2], 477.9 K | 18.2 ± 1.2 | –

Conditions | Normal melting temperature [°C]
[1] | 116.6 ± 0.5
